“Also recorded” adds a separate entry of the source.
Tests used:
VEGF = test: Western blot of VEGF protein expression in TA muscle; type: in vivo, rat
Method: Western blot analysis to detect the presence of VEGF protein: The 100-mg TA muscle specimens were homogenized, and the protein was suspended in potassium buffer (10 mM). Five micrograms of protein (as determined by a protein assay kit, Bio-Rad; Hercules, Calif.) from the TA and a tumor cell line known to express VEGF at high levels (C6, American Type Culture Collection, 107-CCL) were separated on a 12% denaturing polyacrylamide gel. The gels were transferred to a nitrocellulose membrane, which was blocked overnight in 5% nonfat dry milk diluted in Tris-buffered saline (50 mM Tris and 750 mM NaCl, pH 8) with 0.08% Tween 20 (Bio-Rad). The blots were then incubated with a […] antibody to a peptide derived from the human VEGF sequence (1:1,000 dilution, clone G143-850, Pharmingen) for 2 h at room temperature. Washed blots were then incubated with goat anti-mouse secondary antibody at a dilution of 1:1,000 for 1 h at room temperature and then subjected to a SuperSignal West Dura chemiluminescence substrate (Pierce; Rockford, Ill.) detection system. Membranes were exposed to X-ray film (Fuji Medical; Stamford, Conn.) for 15 to 30 s and developed using a Kodak M35 X-Omat processor. For the quantitative VEGF analysis, film was always exposed for a period of time that ensured that all signals were within the linear range of the detection of the film. The VEGF band intensity was quantified using a morphometry imaging system (Metamorph, Universal Imaging; West Chester, Pa.), and values are expressed as a percentage of the C6 tumor cell standard.

[1] = test system: U251 human glioma cells spheroids; test: U251 spheroid-induced angiogenesis in the rat cornea pocket; type: in vivo; conditions: 20 μg HET0016 pellet
Method: (iii) U251 human glioma cells spheroids: U251 human glioma cells were generously provided by Dr. Stephen Brown (Dept. of Radiation Oncology, Henry Ford Health System, Detroit, Mich.). The cells were maintained in DMEM (Invitrogen) supplemented with 10% heat-inactivated fetal bovine serum, penicillin (10 IU/ml), streptomycin (10 μg/ml) and 10% non-essential amino acids and grown at 37° C. in a humidified incubator containing 5% CO2. U251 spheroids were obtained by a modification of the method of Carlsson and Yuhas (Carlsson J and Yuhas J M, Recent Results Cancer Res 1984, 95:1-23). […] Spheroid diameter was measured using a dissection microscope equipped with a ruler. […]
(iv) Quantitation of corneal neovascularization: Seven days after pellet implantation, the rats were deeply anesthetized as previously described with ketamine and xylazine. […]
(§1) Neovascularization was determined by comparing total vessel length in the control and experimental eyes. Vessel length was determined by tracing each vessel from the limbus to the pellet. Total length is the sum of these values in pixels and was determined using conventional image analysis software (Sigma Scan Pro, SPSS, Chicago, Ill.)
For these experiments, we used the human glioblastoma cancer cell line U251, known to be angiogenic (Hsu S C et al., Cancer Res 1996, 56:5684-91). […] Angiogenic responses were assessed 14 days after implantation of the spheroids.

rat cornea = test: Rat cornea pocket angiogenesis assay (growth factor pellets); type: in vivo
Method: (i) Preparation of sustained-release polymer: Sustained-release polymer pellets were prepared by making a 1:1 mix of a 12% solution in ethanol of the polymer (Hydron polyhydroxyethylmethacrylate), with saline containing the growth factors. The growth factors bFGF, VEGF, and EGF were dissolved at a concentration of 125 ng/μl. […] 2 μl of these solutions were added to each pellet. Thus, a pellet containing 250 ng of a single growth factor was implanted at random in the right or left eye. The other eye was implanted with a pellet containing the same dose of growth factor+HET0016. In some rats the pellet contained VEGF alone and VEGF+DDMS. 20 μg of the stable 20-HETE agonist analog WIT003 was implanted in one eye to determine whether it induces angiogenesis. […] 9 μl of the 1:1 Hydron/treatment mixture was placed on the ends of 1.5-cm rods. Each pellet contained 250 ng of its respective growth factor. For bFGF we used sucralfate to stabilize and allow sustained release of this growth factor (Volkin D B et al., Biochim Biophys Acta 1993, 1203:18-26). After drying the pellets for 1 hour, they were ready to be implanted into the cornea of rats.
(ii) Pellet implantation: The rats were anesthetized IM with ketamine (80 mg/kg) and xylazine (10 mg/kg). The eyes were topically anesthetized with 0.5% proparacaine (Ophthetic, Alcon, Tex.) and the globes proptosed with a jeweler's forceps. Using an operating microscope, a central intrastromal linear keratotomy, approximately 1.5 mm in length, was performed with a surgical blade (Bard-Parker #11; Becton Dickinson, Franklin Lake, N.Y.) parallel to the insertion of the lateral rectus muscle. A curved iris spatula (No. 10093-13, Fine Science Tools, Belmont, Calif.) approximately 1.5 mm wide and 5 mm long was inserted under the lip of the incision and gently pushed through the stroma toward the temporal limbus of the eye. The distance between the limbus and the base of the pocket was kept at 1.0±0.1 mm. The pellet was advanced to the temporal end of the pocket. Antibiotic ointment (erythromycin) was applied to the anterior surface of the eye.
(iv) Quantitation of corneal neovascularization: Seven days after pellet implantation, the rats were deeply anesthetized as previously described with ketamine and xylazine. The left ventricle was cannulated and the animal was perfused with 20-25 ml saline through the left ventricle followed by 20-25 ml India ink (waterproof drawing ink, Sanford, Bellwood, Ill.). The eyes were marked for orientation, enucleated and placed in 4% formalin for 24 hours. The cornea was dissected free from the surrounding globe and underlying iris, bisected, and loosely mounted between two glass slides, thus gently flattening the cornea. These flat mounts were examined microscopically using a Nikon Diaphot Epi-fluor 2 microscope attached to a CCD video camera and the images were digitized and saved using a computer.
as §1

[2] = test system: primary human keratinocytes; test: Proliferation of primary human keratinocytes (comparison with U251); type: cell-based; conditions: 10 μM HET0016, 48 hrs; DDMS concentration not given
Method: Mean values±SD from three separate experiments, each performed in triplicate, are presented. *** indicates p<0.001 from the respective control values.
Cell Proliferation Assays: Proliferation studies were performed with cultures plated at a density that ensured exponential growth for at least 5 days. Growth medium was generally replaced by serum-free medium 24 hr after plating. Cells were treated with various concentrations of a given compounds for 24 or 48 hr as described in the Methods. […] Organic solvent never exceeded 0.1% of total culture volume. Cells were harvested by exposure to 0.05% trypsin/EDTA and counted using a hemocytometer.

In the case of CCCCc1ccc(N=CNO)c(C)c1 [HET0016, N-hydroxy-N′-(4-butyl-2 methylphenyl) formamidine], the “effect on increases in VEGF protein expression induced by electrical stimulation” value (VEGF; 7 days stimulation) is reported as “did not block”, the “effect on baseline VEGF expression” value (VEGF; 7 days treatment) is reported as “Neither HET0016 nor ABT had any effect” and the “effect on corneal neovascularization induced by U251 spheroids” value ([1]; 2 weeks) is reported as “significantly inhibited; also recorded: decreases angiogenesis”. For the same compound, the “decrease of angiogenic responses to U251 spheroids” value ([1]; 14 days after implantation) was “approximately 70%”, the “angiogenic response to inhibitor alone” value (rat cornea; 20 μg HET0016 or 10 μg DDMS per pellet, no growth factor) was “Neither HET0016 nor DDMS alone elicited a response different from saline” and the “effect on the angiogenic response to EGF” value (rat cornea; EGF 250 ng/pellet + 20 μg HET0016) was “drastically decreased the angiogenic response; also recorded: obliterated; also recorded: blocks the angiogenic response”. The “reduction of angiogenic responses to VEGF” value (rat cornea; VEGF 250 ng/pellet + 5 μg HET0016) was “about 50%”, the “effect on the angiogenic response to VEGF” value (rat cornea; VEGF 250 ng/pellet + 20 μg HET0016, 7 days) was “almost completely abolished; also recorded: obliterated; also recorded: inhibit angiogenic responses to VEGF” and the “effect on the angiogenic response to VEGF” value (rat cornea; VEGF 250 ng/pellet + 40 μg HET0016) was “almost completely abolished”. For the same compound, the “effect on the angiogenic response to bFGF” value (rat cornea; bFGF 250 ng/pellet + 20 μg HET0016) was “drastically decreased the angiogenic response; also recorded: obliterated; also recorded: blocks the angiogenic response” and the “effect on basal growth or proliferation of primary human keratinocytes” value [2] was “Neither DDMS or HET0016 had any effect; also recorded: had no effect on the basal growth or proliferation; also recorded: had no effect on the proliferation”.

From patent US20050124618A1, “Methods of modulating angiogenesis and cancer cell proliferation” (priority 2003, published 2005)
